Test results taken from patent US12534469B2 (CHILDREN'S HOSPITAL MEDICAL CENTER, priority 2020, dated 2026).
Substitutions are numbered along the chain they refer to.

Key:
FLT3 D835V = target: T1, FLT3 D835V (Homo sapiens, UniProt P36888, D835V); assay: DiscoverX KINOMEscan competition binding assay, FLT3 D835V
T1 construct: purchased DiscoverX (KINOMEscan); host or cells: E. coli (T7 phage) or HEK-293
T1 sequence (P36888 27-993 D835V): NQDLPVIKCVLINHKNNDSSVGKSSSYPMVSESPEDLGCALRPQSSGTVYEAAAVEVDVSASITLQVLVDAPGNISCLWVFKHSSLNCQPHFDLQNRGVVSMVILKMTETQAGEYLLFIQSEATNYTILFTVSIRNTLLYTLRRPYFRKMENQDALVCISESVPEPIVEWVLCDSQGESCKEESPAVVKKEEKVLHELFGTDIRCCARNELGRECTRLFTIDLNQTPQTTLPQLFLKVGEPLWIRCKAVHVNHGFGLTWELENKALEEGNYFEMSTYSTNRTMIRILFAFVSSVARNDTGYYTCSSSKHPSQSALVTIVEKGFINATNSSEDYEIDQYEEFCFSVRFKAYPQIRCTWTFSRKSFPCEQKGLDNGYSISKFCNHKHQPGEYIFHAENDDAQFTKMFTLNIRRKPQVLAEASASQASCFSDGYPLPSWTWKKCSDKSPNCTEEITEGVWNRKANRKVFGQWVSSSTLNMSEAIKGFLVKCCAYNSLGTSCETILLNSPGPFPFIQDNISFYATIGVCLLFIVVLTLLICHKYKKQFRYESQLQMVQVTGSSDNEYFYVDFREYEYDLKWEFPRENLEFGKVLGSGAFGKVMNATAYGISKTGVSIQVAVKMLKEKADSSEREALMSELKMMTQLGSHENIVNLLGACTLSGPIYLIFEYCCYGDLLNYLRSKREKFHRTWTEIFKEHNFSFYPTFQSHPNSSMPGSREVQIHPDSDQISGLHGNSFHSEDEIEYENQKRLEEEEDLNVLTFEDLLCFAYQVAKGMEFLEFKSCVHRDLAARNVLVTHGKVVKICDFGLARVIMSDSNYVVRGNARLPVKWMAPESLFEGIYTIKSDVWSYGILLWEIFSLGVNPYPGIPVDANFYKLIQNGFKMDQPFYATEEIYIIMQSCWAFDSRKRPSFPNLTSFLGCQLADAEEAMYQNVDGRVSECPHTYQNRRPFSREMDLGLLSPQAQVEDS
Excerpt: (§1) Kinase binding data were obtained for various exemplary compounds prepared according to Examples 1-25 using the DiscoverX KINOMEscan® active site-directed competition binding site-directed assay protocol described below. […] As a result, the data report thermodynamic interaction affinities (Kd values), rather than IC50 values that are dependent on ATP concentrations. The assay uses a DNA-tagged version of the protein kinase, and an immobilized ligand bound to a solid support. Compounds that directly or indirectly prevent kinase binding to the immobilized ligand reduce the amount of kinase captured on the solid support, which is detected using an ultra-sensitive qPCR method. Affinity constants reported from the assay have been reported to be independent of the immobilized ligand used that is coupled to the solid support (See supplemental information in Fabian, M. A. et. al., (2005) Nat. Biotechnol. 23, 329-336; Wodicka, L. M. et. al., (2010) Chem. Biol. 17, 1241-1249.)
(§2) Kinase-tagged T7 phage strains were prepared in an E. coli host derived from the BL21 strain. E. coli were grown to log-phase and infected with T7 phage and incubated with shaking at 32° C. until lysis. The lysates were centrifuged and filtered to remove cell debris. The remaining kinases were produced in HEK-293 cells and subsequently tagged with DNA for qPCR detection. […] The liganded beads were blocked with excess biotin and washed with blocking buffer (SeaBlock (Pierce), 1% BSA, 0.05% Tween 20, 1 mM DTT) to remove unbound ligand and to reduce non-specific binding. […] Test compounds were prepared as 111× stocks in 100% DMSO. Kds were determined using an 11-point 3-fold compound dilution series with three DMSO control points. […] The compounds were then diluted directly into the assays such that the final concentration of DMSO was 0.9%. All reactions were performed in polypropylene 384-well plates. Each was a final volume of 0.02 mL. […] The kinase concentration in the eluates was measured by qPCR.
(§3) Binding constants (Kds) were calculated with a standard dose-response curve using the Hill equation. […]

FLT3 N841I = target: T2, FLT3 N841I (Homo sapiens, UniProt P36888, N841I); assay: DiscoverX KINOMEscan competition binding assay, FLT3 N841I
T2 construct: purchased DiscoverX (KINOMEscan); host or cells: E. coli (T7 phage) or HEK-293
T2 sequence (P36888 27-993 N841I): T1 sequence (P36888 27-993 D835V) with V809D, N815I
Excerpt: as §1, §2, §3

Row | SMILES | Kd (FLT3 D835V) [nM] | Kd (FLT3 N841I) [nM]
1 | COc1cc2ncc(-c3cccc(N[C@H]4CNCC[C@@H]4F)n3)n2nc1C1CC1 [Compound 102, 6-(6-cyclopropyl-7-methoxyimidazo[1,2-b]pyridazin-3-yl)-N-((3S,4S)-4-fluoropiperidin-3-yl)pyridin-2-amine] | 0.11 | 0.36
2 | COc1cc2ncc(-c3cccc(N[C@H]4CNC[C@@H]4F)n3)n2nc1C1CC1 [Compound 96, 6-(6-cyclopropyl-7-methoxyimidazo[1,2-b]pyridazin-3-yl)-N-((3S,4S)-4-fluoropyrrolidin-3-yl)pyridin-2-amine] | 0.12 | 0.91
3 | COc1cc2ncc(-c3cccc(N[C@@H]4CCNC4)n3)n2nc1C1CC1 [Compound 97, (R)-6-(6-cyclopropyl-7-methoxyimidazo[1,2-b]pyridazin-3-yl)-N-(pyrrolidin-3-yl)pyridin-2-amine] | 0.067 | 0.55
